The source of these data is ChEMBL document CHEMBL2396587, “Synthesis, in vitro, and in cell studies of a new series of [indoline-3,2'-thiazolidine]-based p53 modulators” (J Med Chem, 2013).

The source made the active and inactive calls. The rule behind the calls is not given here.

One test has as its system HT-29. Briefly: Cytotoxicity against human HT-29 cells after 24 hrs by MTT assay. To be noted: HT-29, 24 h. Type of test: functional, cell-based. Background: Tetrazolium assays rely on reduction of a dye to a coloured formazan, in cell work by metabolically active cells.
The subject of test [1] is MCF7. In words: cells. To be noted: Homo sapiens, MCF7, 24 h.
Description: Cytotoxicity against human MCF7 cells after 24 hrs by MTT assay
Test [2] can be described thus: Cytotoxicity against human HGF cells after 24 hrs by MTT assay. Type of test: cell-based.
Test [3] relates to MCF7. Briefly: Induction of apoptosis in human MCF7 cells assessed as accumulation at subG1 phase at 50 nM by propidium iodide staining-based FACS analysis. To be noted: TDE = time-dependent effect. The class given is functional, cell-based. For orientation: In flow cytometry, cells or beads pass a laser one at a time.
Test [4] concerns MCF7. Briefly: Induction of apoptosis in human MCF7 cells assessed as early apoptotic cells at 50 nM after 72 hrs by annexin V-FITC/propidium iodide staining based FACS flow cytometry (reference value: 4 %). Type of test: functional.
The test system of test [5] is MCF7. In words: Induction of apoptosis in human MCF7 cells assessed as increase in p21 expression level at 50 nM by Western blotting analysis. The class given is functional, cell-based. To be noted: TDE = time-dependent effect. In general terms: Immunoblotting shows a protein as a band on a membrane.
Another test deals with PC-3. In words: cells. To be noted: Homo sapiens, PC-3, 24 h.
For test [6], the system named is MCF7. In words: Cell cycle arrest in human MCF7 cells assessed as accumulation at G1 phase at 50 to 5000 nM after 24 hrs by propidium iodide staining-based FACS analysis relative to control. Type of test: functional.
In test [7] the test system is MCF7. Briefly: Induction of apoptosis in human MCF7 cells assessed as increase in p27 expression level at 50 nM by Western blotting analysis. To be noted: TDE = time-dependent effect. Type of test: functional, cell-based.
The subject of test [8] is MCF7. In words: Cell cycle arrest in human MCF7 cells assessed as accumulation at S phase at 50 nM after 24 to 72 hrs by propidium iodide staining-based FACS analysis relative to control. The class given is functional.
Test [9] relates to MCF7. Briefly: Induction of apoptosis in human MCF7 cells assessed as cytochrome C release at 50 nM after 72 hrs by Western blotting analysis. The class given is functional, cell-based.
Test [10] concerns the target T1, Tumour suppressor p53/oncoprotein Mdm2 (Homo sapiens) (UniProt P04637+Q00987). In words: Inhibition of MDM2-p53 interaction in human MCF7 cells after 72 hrs by immunoprecipitation assay. Type of test: cell-based.
For test [11], the system named is MCF7. Briefly: Induction of apoptosis in human MCF7 cells assessed as increase in p53 expression level at 50 nM by Western blotting analysis. To be noted: TDE = time-dependent effect. Type of test: functional, cell-based.
In test [12] the test system is MCF7. Briefly: Cell cycle arrest in human MCF7 cells assessed as accumulation at G2M phase at 50 nM after 24 to 72 hrs by propidium iodide staining-based FACS analysis relative to control. The class given is functional.
Test [13] is described as follows: Cytotoxicity against human C643 cells after 24 hrs by MTT assay. To be noted: C643, 24 h.
Test [14] has as its system MCF7. In words: Induction of apoptosis in human MCF7 cells assessed as accumulation of caspase-3 cleavage product at 50 nM after 24 to 72 hrs by Western blotting analysis.
Test [15] can be described thus: Cytotoxicity against human Calu cells after 24 hrs by MTT assay. Type of test: functional, cell-based.
In another test the test system is U-937. In words: Cytotoxicity against human U937 cells after 24 hrs by MTT assay. To be noted: U-937, 24 h. The class given is functional, cell-based.
In test [16] the target is T1, Tumour suppressor p53/oncoprotein Mdm2 (Homo sapiens). In words: Inhibition of MDM2-p53 interaction in human MCF7 cells assessed as MDM2 accumulation at 50 nM after 24 to 72 hrs by Western blot analysis. The class given is cell-based.
For test [17], the system named is MCF7. Briefly: Induction of apoptosis in human MCF7 cells assessed as increase in Bcl-xS expression level at 50 nM after 24 to 72 hrs by Western blotting analysis. The class given is functional, cell-based.
For test [18], the system named is MCF7. Briefly: Cell cycle arrest in human MCF7 cells assessed as accumulation at G2M phase at 50 to 5000 nM after 24 hrs by propidium iodide staining-based FACS analysis relative to control. Type of test: functional.
For test [19], the system named is MCF7. In words: Induction of apoptosis in human MCF7 cells assessed as early apoptotic cells at 50 nM after 48 hrs by annexin V-FITC/propidium iodide staining based FACS flow cytometry (reference value: 4 %). Type of test: functional.
Test [20] relates to MCF7. In words: Cell cycle arrest in human MCF7 cells assessed as accumulation at G1 phase at 50 nM after 24 to 72 hrs by propidium iodide staining-based FACS analysis relative to control. The class given is functional.
The test system of another test is HepG2. Briefly: cells. To be noted: Homo sapiens, HepG2, 24 h.
Test [21] deals with T1, Tumour suppressor p53/oncoprotein Mdm2 (Homo sapiens). In words: Inhibition of MDM2-p53 interaction in human MCF7 cells assessed as reduction in p53 level bound to MDM2 after 24 to 48 hrs by immunoprecipitation assay. The class given is cell-based.
The subject of test [22] is MCF7. Briefly: Cell cycle arrest in human MCF7 cells assessed as accumulation at S phase at 50 to 5000 nM after 24 hrs by propidium iodide staining-based FACS analysis relative to control. Type of test: functional.
Test [23] relates to MCF7. Briefly: Induction of apoptosis in human MCF7 cells assessed as reduction in Bcl-xL expression level at 50 nM after 24 to 72 hrs by Western blotting analysis. The class given is functional, cell-based.
The nature of test [24]: Ratio of Doxorubicin IC50 to compound IC50 against human Calu cells. Type of test: functional.
For test [25], the target named is T1, Tumour suppressor p53/oncoprotein Mdm2 (Homo sapiens). In words: Inhibition of MDM2-p53 interaction in human MCF7 cells assessed as p53 accumulation at 50 nM after 24 to 72 hrs by Western blot analysis. The class given is cell-based.

The IC50 is the point on the concentration scale where inhibition reaches its midpoint.

T1 sequence (P04637 whole entry, looked up): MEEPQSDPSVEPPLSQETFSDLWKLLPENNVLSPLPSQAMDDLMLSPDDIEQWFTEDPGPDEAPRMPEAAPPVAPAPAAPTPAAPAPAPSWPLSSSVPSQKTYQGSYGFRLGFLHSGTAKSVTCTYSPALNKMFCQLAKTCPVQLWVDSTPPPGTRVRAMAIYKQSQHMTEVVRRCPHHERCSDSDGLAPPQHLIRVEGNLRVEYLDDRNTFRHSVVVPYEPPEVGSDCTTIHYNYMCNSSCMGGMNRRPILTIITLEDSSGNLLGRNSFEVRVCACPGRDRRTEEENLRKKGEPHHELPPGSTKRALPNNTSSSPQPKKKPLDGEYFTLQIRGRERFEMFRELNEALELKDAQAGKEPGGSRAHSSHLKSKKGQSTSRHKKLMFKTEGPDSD
T1 sequence (Q00987 whole entry, looked up): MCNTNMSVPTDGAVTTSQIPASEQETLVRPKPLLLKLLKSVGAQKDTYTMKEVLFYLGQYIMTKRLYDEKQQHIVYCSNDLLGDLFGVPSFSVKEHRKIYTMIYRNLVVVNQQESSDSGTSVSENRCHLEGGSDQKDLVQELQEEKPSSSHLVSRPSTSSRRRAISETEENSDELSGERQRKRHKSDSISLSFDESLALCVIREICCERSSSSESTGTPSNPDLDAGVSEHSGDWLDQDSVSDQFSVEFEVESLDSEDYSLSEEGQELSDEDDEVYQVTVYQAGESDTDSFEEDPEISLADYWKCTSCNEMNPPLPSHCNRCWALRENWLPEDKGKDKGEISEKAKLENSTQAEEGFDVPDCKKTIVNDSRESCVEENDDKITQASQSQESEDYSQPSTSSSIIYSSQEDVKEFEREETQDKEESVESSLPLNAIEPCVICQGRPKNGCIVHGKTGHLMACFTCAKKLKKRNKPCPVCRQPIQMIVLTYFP
Description for HepG2: Cytotoxicity against human HepG2 cells after 24 hrs by MTT assay
Description for PC-3: Cytotoxicity against human PC3 cells after 24 hrs by MTT assay

Take `CCOC(=O)[C@@H]1CS[C@@]2(C(=O)Nc3ccc(Br)cc32)N1C(=O)c1ccc(Cl)cc1`: the IC50 amounted to 110 nM in the test with HT-29 and 900 nM in the test with MCF7 [1].
Take `CCOC(=O)[C@@H]1CS[C@]2(N1)C(=O)N(C(=O)c1ccc(Cl)cc1)c1ccc(C)cc12`: the IC50 in the test on HT-29 was 230 nM; in the test with MCF7 [1], 3460 nM.
On the same counts, the results for `CCOC(=O)[C@@H]1CS[C@@]2(C(=O)Nc3ccc(Br)cc32)N1C(=O)C1CCCCC1` (mixture of isomers) are 560 nM and 220 nM.
The like results for `CN1C(=O)[C@@]2(SC[C@@H](C(=O)O)N2C(=O)C2CCCCC2)c2cc(Br)ccc21` (mixture of isomers) were, in that order, 1900 nM and 2010 nM.
On the same counts, the results for `CCOC(=O)[C@@H]1CS[C@@]2(C(=O)Nc3ccc(Br)cc32)N1C(=O)Cc1ccc(Cl)cc1` are 660 nM and 2900 nM.
On to `CCOC(=O)[C@@H]1CS[C@@]2(C(=O)N(C)c3ccc(Br)cc32)N1C(=O)c1ccccc1`, for which the IC50 with HT-29 amounted to 210 nM; in the test with MCF7 [1], 310 nM.
The like results for `CCOC(=O)[C@@H]1CS[C@@]2(C(=O)N(C)c3ccc(Br)cc32)N1C(=O)c1ccc(Cl)cc1` were, in that order, 80 nM and 520 nM.
On the same counts, the results for `CCOC(=O)[C@@H]1CS[C@@]2(C(=O)Nc3ccc(C)cc32)N1C(=O)c1ccc(Cl)cc1` are 1090 nM and 2120 nM.
On to `CCOC(=O)[C@@H]1CS[C@@]2(C(=O)N(C)c3ccc(Br)cc32)N1C(=O)C1CCCCC1` (mixture of isomers), for which the IC50 in test [2] turned out to be 1600 nM; in the test with PC-3, 410 nM; in the test with HT-29 it was 70 nM; with MCF7 [1], 40 nM; in test [13], 550 nM; in [15] it was 100 nM. Moreover, the IC50 worked out at 70 nM with U-937 and 140 nM in the test on HepG2. Further, the Activity result in the test on MCF7 [3] was “tde”; in the test with MCF7 [4], 12%; with MCF7 [5], “tde”; with MCF7 [7], “tde”; with MCF7 [11], “tde”; in the test on MCF7 [19], 10%. The result in the test on MCF7 [6], in the test with MCF7 [8], in the test with MCF7 [12], in the test on MCF7 [18], in the test with MCF7 [20] and in the test on MCF7 [22] was inactive. In addition, the outcome in the test with MCF7 [9], in the test with MCF7 [14], in the test with MCF7 [17] and with MCF7 [23] was Active. Further, the inhibition result in test [10] was “inactive”. Also, the inhibition result in test [16], in [21] and in test [25] was “Active” in each case. Also, the “Ratio IC50” value in [24] is on record as 18.
As to `COc1ccc(C2=N[C@@H](c3ccc(Cl)cc3)[C@@H](c3ccc(Cl)cc3)N2C(=O)N2CCNC(=O)C2)c(OC(C)C)c1` (relative stereo) [NUTLIN-3], the IC50 was determined as 1400 nM in test [2]; 30300 nM in the test on PC-3; 2900 nM in the test on MCF7 [1]; 23000 nM in test [13]; 27200 nM in test [15]; 15600 nM with U-937. Half-maximal inhibition in the test on HepG2 (IC50) was put at 10200 nM.
In the case of `CCOC(=O)[C@@H]1CS[C@@]2(C(=O)Nc3ccccc32)N1C(=O)c1ccc(Cl)cc1`, the results for the IC50 in the test on HT-29 and with MCF7 [1] were 3690 nM and 2150 nM, respectively.
On the same counts, the results for `CCOC(=O)[C@@H]1CS[C@@]2(C(=O)Nc3ccccc32)N1C(=O)Cc1ccc(Cl)cc1` are 1000 nM and > 5000 nM.
Regarding `CCOC(=O)C1=N[C@@]2(SC1)C(=O)N(C(=O)C1CCCCC1)c1ccc(Br)cc12`, in the test on HT-29, the IC50 worked out at 850 nM.
On to `CCOC(=O)[C@@H]1CS[C@]2(N1)C(=O)N(C(=O)c1ccc(Cl)cc1)c1ccc(Br)cc12`, for which the IC50 in the test on HT-29 worked out at 20 nM; with MCF7 [1], 150 nM.
For `CCOC(=O)[C@@H]1CS[C@@]2(C(=O)N(C)c3ccc(Br)cc32)N1C(=O)Cc1ccc(Cl)cc1`, the concentration for half-maximal inhibition (IC50) turned out to be 360 nM in the test on HT-29 and 270 nM in the test with MCF7 [1].
As for `CCOC(=O)[C@@H]1CS[C@@]2(C(=O)N(C)c3ccccc32)N1C(=O)C1CCCCC1` (mixture of isomers), the IC50 was found to be 1900 nM with HT-29 and 2300 nM with MCF7 [1].
The like results for `CCOC(=O)[C@@H]1CS[C@@]2(C(=O)N(C)c3ccc(Br)cc32)N1C(=O)c1ccc(C)cc1` were, in that order, 90 nM and 60 nM.
The like results for `CCOC(=O)[C@@H]1CS[C@@]2(C(=O)Nc3ccc(C)cc32)N1C(=O)Cc1ccc(Cl)cc1` were, in that order, 780 nM and 4810 nM.
On the same counts, the results for `CCOC(=O)[C@@H]1CS[C@]2(C(=O)Nc3ccc(Br)cc32)N1C(=O)c1ccc(Cl)cc1` are 2000 nM and 3000 nM.
For the molecule `CCOC(=O)[C@@H]1CS[C@@]2(C(=O)N(C)c3ccccc32)N1C(=O)c1ccc(Cl)cc1`, the IC50 with HT-29 was 180 nM; with MCF7 [1], 4520 nM.
On the same counts, the results for `CCOC(=O)[C@@H]1CS[C@@]2(C(=O)N(C)c3ccc(C)cc32)N1C(=O)c1ccc(Cl)cc1` are 120 nM and 1230 nM.
Molecule `CCOC(=O)[C@@H]1CS[C@]2(N1)C(=O)N(C(=O)C1CCCCC1)c1ccc(Br)cc12` had an IC50 in the test on HT-29 of 1400 nM.
In the case of `COc1cccc2c1C(=O)c1c(O)c3c(c(O)c1C2=O)C[C@@](O)(C(=O)CO)C[C@@H]3O[C@H]1C[C@H](N)[C@H](O)[C@H](C)O1` [DOXORUBICIN], the IC50 is 500 nM in [2]; 750 nM in the test on PC-3; 1810 nM in test [15]; 120 nM with U-937; 80 nM with HepG2.
On to `CCOC(=O)[C@@H]1CS[C@]2(N1)C(=O)N(C(=O)c1ccc(Cl)cc1)c1ccccc12`, for which the IC50 is 1030 nM in the test with HT-29 and 1010 nM in the test with MCF7 [1].
On the same counts, the results for `CCOC(=O)[C@@H]1CS[C@@]2(C(=O)N(C)c3ccc(C)cc32)N1C(=O)C1CCCCC1` (mixture of isomers) are 1100 nM and 1200 nM.
On the same counts, the results for `O=C1C2CSC3(C(=O)Nc4ccccc43)N2C(=O)N1Cc1ccc(Cl)cc1` (configuration not stated) are 1600 nM and 1210 nM.
The like results for `CCOC(=O)C1=N[C@@]2(SC1)C(=O)N(C(=O)c1ccc(Cl)cc1)c1ccc(Br)cc12` (single isomer, unassigned) were, in that order, 200 nM and 860 nM.
